Values quoted from earlier work as cited in PubChem BioAssay AID1259409 (Chemical Carcinogenesis Research Information System (CCRIS), 2018).

Test system: rodent chemically induced tumor inhibition, incidence and multiplicity
Experiment: CCRIS tumor inhibitor studies

For `c1ccc2c(Cc3c[nH]c4ccccc34)c[nH]c2c1`, the “tumour outcome (control, treated, inhibition, significance)” value (Carcinogen: BENZO[A]PYRENE, 50-32-8, Dose [Inhibitor]: 0.02 MMOL/G DIET DAILY STARTING AT 63 D OF AGE (8 D PRIOR TO START OF CARCINOGEN TREATMENT) THROUGH 98 D OF AGE FOLLOWED, Route [Inhibitor]: ORAL, Species: MOUSE, Strain/Sex: ICR/FEMALE, Target Tissue: Type of Lesion: FORESTOMACH: TUMOR, Dose [Carcinogen]: 1 MG IN 0.2 ML CORN OIL ADMINISTERED 2/WK FOR 4 WK, Promoter: NONE USED) is given as 93%, 94%, -1%, not significant.

For `O=CC[C@@H](O)[C@H](O)[C@H](O)CO`, the outcome (Carcinogen: 1-METHYL-1-NITROSOUREA [684-93-5], Dose [Inhibitor]: 0, 0.02, 0.03% IN DIET 6 D AFTER CARCINOGEN FOR 5 WKS, Route [Inhibitor]: DIET, Species: RAT, Strain/Sex: SPRAGUE-DAWLEY/FEMALE (30,30)/(30,30)/(30,30), Target Tissue: Type of Lesion: MAMMARY GLAND: ADENOCARCINOMA, Dose [Carcinogen]: 50 MG/KG BW AT 21 D OF AGE (STUDY DURATION: 6-7 WKS)) is given as 25/30 (83.3%); 15/30 (50%), 40%, p<0.001; 15/30 (50%), 40%, p<0.001.

In the case of `C/C=C(/C)C(=O)OC1c2c(ccc3ccc(=O)oc23)OC(C)(C)C1OC(=O)/C(C)=C\C` (configuration not stated), the “tumour outcome (control, treated, inhibition, significance)” value (Carcinogen: 7,12-DIMETHYLBENZ[A]ANTHRACENE, 57-97-6, Dose [Inhibitor]: 10 UMOL APPLIED 40 MINUTES PRIOR TO PROMOTER DOSE (STUDY DURATION: 20 WK), Route [Inhibitor]: DERMAL, Species: MOUSE, Strain/Sex: ICR/FEMALE, Target Tissue: Type of Lesion: SKIN: PAPILLOMA, Dose [Carcinogen]: 100 UG ONCE) is given as 100%, 0%, 100%, not calculated.

For `Nc1ncn[nH]1`, the “tumour outcome (control, treated, inhibition, significance)” value (Carcinogen: DIETHYLSTILBESTROL, 56-53-1, Dose [Inhibitor]: 0, 1500 PPM IN DRINKING WATER 47 D POST FIRST DOSE OF CARCINOGEN (STUDY DURATION: 6 MO), Route [Inhibitor]: ORAL, Species: RAT, Strain/Sex: WF/MALE, Target Tissue: Type of Lesion: LIVER: HEPATOCELLULAR CARCINOMA, Dose [Carcinogen]: 5 MG ONTO BACK 1/2 MO FOR 6 MO, Promoter: NONE USED) is listed as 1/9 (11%), 0/11 (0%), 100%, not calculated and the “tumour outcome (control, treated, inhibition, significance)” value (Carcinogen: DIETHYLSTILBESTROL, 56-53-1, Dose [Inhibitor]: 0, 1500 PPM IN DRINKING WATER 47 D POST FIRST DOSE OF CARCINOGEN (STUDY DURATION: 6 MO), Route [Inhibitor]: ORAL, Species: RAT, Strain/Sex: WF/MALE, Target Tissue: Type of Lesion: PITUITARY: TUMOR, Dose [Carcinogen]: 5 MG ONTO BACK 1/2 MO FOR 6 MO, Promoter: NONE USED) is listed as 7/9 (78%), 8/11 (73%), 6%, not significant.

In the case of `CCCCCCCCCCCC`, the “tumour outcome (control, treated, inhibition, significance)” value (Carcinogen: 4-(METHYLNITROSAMINO)-1-(3-PYRIDYL)-1-BUTANONE, 64091-91-4, Dose [Inhibitor]: 0, 1 UMOL IN 0.1 ML CORN OIL ONCE 2 HR PRIOR TO CARCINOGEN DOSE (STUDY DURATION: 16 WK), Route [Inhibitor]: GAVAGE, Species: MOUSE, Strain/Sex: STRAIN-A/FEMALE, Target Tissue: Type of Lesion: LUNG: ADENOMA, Dose [Carcinogen]: 10 UMOL IN 0.1 ML SALINE ONCE, Promoter: NONE USED) is listed as 100%, 100%, 0%, not significant.

In the case of `CCOC(=O)/C=C\C(=O)OCC`, the “tumour outcome (control, treated, inhibition, significance)” value (Carcinogen: BUTYLATED HYDROXYANISOLE, 25013-16-5, Dose [Inhibitor]: 0, 0.2% IN DIET SIMULTANEOUSLY WITH CARCINOGEN FOR 104 WK (STUDY DURATION: 104 WK), Route [Inhibitor]: ORAL, Species: RAT, Strain/Sex: F344/MALE, Target Tissue: Type of Lesion: FORESTOMACH: PAPILLOMA, Dose [Carcinogen]: 2% IN DIET FOR 104 WK, Promoter: NONE USED) is listed as 88%, 27%, 69%, p<0.01, the “tumour outcome (control, treated, inhibition, significance)” value (Carcinogen: BUTYLATED HYDROXYANISOLE, 25013-16-5, Dose [Inhibitor]: 0, 0.2% IN DIET SIMULTANEOUSLY WITH CARCINOGEN FOR 104 WK (STUDY DURATION: 104 WK), Route [Inhibitor]: ORAL, Species: RAT, Strain/Sex: F344/MALE, Target Tissue: Type of Lesion: FORESTOMACH: SQUAMOUS CELL CARCINOMA, Dose [Carcinogen]: 2% IN DIET FOR 104 WK, Promoter: NONE USED) is listed as 20%, 5%, 75%, not calculated and the “tumour outcome (control, treated, inhibition, significance)” value (Carcinogen: N-BUTYL-N-(4-HYDROXYBUTYL)NITROSAMINE, 3817-11-6, Dose [Inhibitor]: 0, 0.15% IN DRINKING WATER FOR 31 WK BEGINNING POST CARCINOGEN DOSE (STUDY DURATION: 36 WK), Route [Inhibitor]: ORAL, Species: RAT, Strain/Sex: F344/MALE, Target Tissue: Type of Lesion: URINARY BLADDER: CARCINOMA, Dose [Carcinogen]: 0.05% IN DRINKING WATER FOR 4 WK, Promoter: BUTYLATED HYDROXYANISOLE, 25013-16-5) is listed as 5/15 (33%), 2/15 (13%), 61%, not significant. For the same molecule, the “tumour outcome (control, treated, inhibition, significance)” value (Carcinogen: N-BUTYL-N-(4-HYDROXYBUTYL)NITROSAMINE, 3817-11-6, Dose [Inhibitor]: 0, 0.15% IN DRINKING WATER FOR 31 WK BEGINNING POST CARCINOGEN DOSE (STUDY DURATION: 36 WK), Route [Inhibitor]: ORAL, Species: RAT, Strain/Sex: F344/MALE, Target Tissue: Type of Lesion: URINARY BLADDER: PAPILLOMA, Dose [Carcinogen]: 0.05% IN DRINKING WATER FOR 4 WK, Promoter: BUTYLATED HYDROXYANISOLE, 25013-16-5) was 8/15 (53%), 10/15 (67%), -26%, not significant, the “tumour outcome (control, treated, inhibition, significance)” value (Carcinogen: N-BUTYL-N-(4-HYDROXYBUTYL)NITROSAMINE, 3817-11-6, Dose [Inhibitor]: 0, 0.15% IN DRINKING WATER FOR 31 WK BEGINNING POST CARCINOGEN DOSE (STUDY DURATION: 36 WK), Route [Inhibitor]: ORAL, Species: RAT, Strain/Sex: F344/MALE, Target Tissue: Type of Lesion: URINARY BLADDER: PAPILLOMA, Dose [Carcinogen]: 0.05% IN DRINKING WATER FOR 4 WK, Promoter: SODIUM BICARBONATE, 144-55-8) was 9/15 (60%), 9/15 (60%), 0%, not significant and the “tumour outcome (control, treated, inhibition, significance)” value (Carcinogen: N-METHYL-N'-NITRO-N-NITROSOGUANIDINE, 70-25-7, Dose [Inhibitor]: 0, 0.2% IN DIET BEGINNING 1 WK POST CARCINOGEN DOSE AND CONTINUING FOR 51 WK (STUDY DURATION: 52 WK), Route [Inhibitor]: ORAL, Species: RAT, Strain/Sex: F344/MALE, Target Tissue: Type of Lesion: FORESTOMACH: CARCINOMA, Dose [Carcinogen]: 150 MG/KG ONCE, Promoter: BUTYLATED HYDROXYANISOLE, 25013-16-5) was 5/14 (36%), 0/14 (0%), 100%, p<0.05. The “tumour outcome (control, treated, inhibition, significance)” value (Carcinogen: N-METHYL-N'-NITRO-N-NITROSOGUANIDINE, 70-25-7, Dose [Inhibitor]: 0, 0.2% IN DIET BEGINNING 1 WK POST CARCINOGEN DOSE AND CONTINUING FOR 51 WK (STUDY DURATION: 52 WK), Route [Inhibitor]: ORAL, Species: RAT, Strain/Sex: F344/MALE, Target Tissue: Type of Lesion: FORESTOMACH: PAPILLOMA, Dose [Carcinogen]: 150 MG/KG ONCE, Promoter: BUTYLATED HYDROXYANISOLE, 25013-16-5) was 14/14 (100%), 11/14 (79%), 21%, not calculated, the “tumour outcome (control, treated, inhibition, significance)” value (Carcinogen: N-METHYL-N'-NITRO-N-NITROSOGUANIDINE, 70-25-7, Dose [Inhibitor]: 0, 0.2% IN DIET BEGINNING 1 WK POST CARCINOGEN DOSE AND CONTINUING FOR 51 WK (STUDY DURATION: 52 WK), Route [Inhibitor]: ORAL, Species: RAT, Strain/Sex: F344/MALE, Target Tissue: Type of Lesion: FORESTOMACH: SARCOMA, Dose [Carcinogen]: 150 MG/KG ONCE, Promoter: BUTYLATED HYDROXYANISOLE, 25013-16-5) was 1/14 (7%), 4/14 (29%), -314%, not calculated and the “tumour outcome (control, treated, inhibition, significance)” value (Carcinogen: N-METHYL-N'-NITRO-N-NITROSOGUANIDINE, 70-25-7, Dose [Inhibitor]: 0, 0.2% IN DIET BEGINNING 1 WK POST CARCINOGEN DOSE AND CONTINUING FOR 51 WK (STUDY DURATION: 52 WK), Route [Inhibitor]: ORAL, Species: RAT, Strain/Sex: F344/MALE, Target Tissue: Type of Lesion: FORESTOMACH: SQUAMOUS CELL CARCINOMA, Dose [Carcinogen]: 150 MG/KG ONCE, Promoter: BUTYLATED HYDROXYANISOLE, 25013-16-5) was 14/14 (100%), 5/14 (36%), 64%, p<0.001.

For `CCCCCCCCCCCCCCCC`, the “tumour outcome (control, treated, inhibition, significance)” value (Carcinogen: BENZO[A]PYRENE, 50-32-8, Dose [Inhibitor]: 25 MG IN 0.1 ML ACETONE 3/WK ADMINISTERED SIMULTANEOUSLY WITH CARCINOGEN FOR DURATION OF STUDY (STUDY DURATION: 440 D), Route [Inhibitor]: DERMAL, Species: MOUSE, Strain/Sex: ICR/FEMALE, Target Tissue: Type of Lesion: SKIN: PAPILLOMA, Dose [Carcinogen]: 5 UG IN 0.1 ML ACETONE 3/WK FOR DURATION OF STUDY, Promoter: NONE USED) is given as 16/50 (32%), 5/50 (10%), 69%, not calculated and the “tumour outcome (control, treated, inhibition, significance)” value (Carcinogen: BENZO[A]PYRENE, 50-32-8, Dose [Inhibitor]: 25 MG IN 0.1 ML ACETONE 3/WK ADMINISTERED SIMULTANEOUSLY WITH CARCINOGEN FOR DURATION OF STUDY (STUDY DURATION: 440 D), Route [Inhibitor]: DERMAL, Species: MOUSE, Strain/Sex: ICR/FEMALE, Target Tissue: Type of Lesion: SKIN: SQUAMOUS CARCINOMA, Dose [Carcinogen]: 5 UG IN 0.1 ML ACETONE 3/WK FOR DURATION OF STUDY, Promoter: NONE USED) is given as 12/50 (24%), 2/50 (4%), 83%, not calculated.
